From patent US20080019931A1, “Method and composition for producing enhanced fingernails” (PROSTRONG, INC, priority 2004, published 2008)

Experiment: Solubility in water
Format: physicochemical

O=P([O-])([O-])P(=O)([O-])[O-].[Ca+2].[Ca+2] [Calcium Hypophosphate]
solubility in water: soluble in water
